pKi: −log10 of the molar value. Read-outs that look alike come from different tables or passages of the source. One block for each molecule: values may come before it.
Tests used:
[1] = target: T1, human recombinant adrenergic α2B receptor (Homo sapiens, UniProt P18089); test: Radioligand binding, adrenergic α2B ([3H]Rauwolscine); conditions: for Percentage inhibition of ligand binding, Adrenergic α2B / Percentage inhibition of ligand binding, Adrenergic α2B (0.03 μM): 0.03 µM; for pKi: read-out: Ki α2B
T1 construct: expressed in transfected cells; host or cells: CHO-K1
T1 sequence (P18089 1-450): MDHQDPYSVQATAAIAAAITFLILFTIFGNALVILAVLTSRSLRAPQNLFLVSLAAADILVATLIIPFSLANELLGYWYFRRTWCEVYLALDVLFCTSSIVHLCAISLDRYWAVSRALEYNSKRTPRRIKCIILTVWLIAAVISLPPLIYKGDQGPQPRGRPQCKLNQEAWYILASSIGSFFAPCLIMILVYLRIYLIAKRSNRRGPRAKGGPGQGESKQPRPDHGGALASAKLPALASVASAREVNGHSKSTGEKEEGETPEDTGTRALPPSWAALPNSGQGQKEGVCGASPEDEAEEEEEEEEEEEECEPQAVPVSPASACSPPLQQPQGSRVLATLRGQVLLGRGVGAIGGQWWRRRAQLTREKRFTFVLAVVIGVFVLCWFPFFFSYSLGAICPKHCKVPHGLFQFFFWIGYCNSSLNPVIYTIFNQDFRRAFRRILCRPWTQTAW
Outline: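 Readout: percent inhibition of specific [3H]Rauwolscine binding, measured by filtration and counting. Conditions: CHO-K1 cell-expressed receptor, 2.5 nM radioligand, 60 min, 25° C, Tris-HCl pH 7.4 buffer with MgCl2, EDTA, BSA. Non-specific binding: 10 μM Prazosin.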

[2] = target: T2, human recombinant adrenergic α2A receptor (Homo sapiens, UniProt P08913); test: Radioligand binding, adrenergic α2A ([3H]MK-912); conditions: for Percentage inhibition of ligand binding, Adrenergic α2A / Percentage inhibition of ligand binding, Adrenergic α2A (0.1 μM): 0.1 µM
T2 construct: expressed in transfected cells; host or cells: insect Sf9 cells
T2 sequence (P08913 1-465): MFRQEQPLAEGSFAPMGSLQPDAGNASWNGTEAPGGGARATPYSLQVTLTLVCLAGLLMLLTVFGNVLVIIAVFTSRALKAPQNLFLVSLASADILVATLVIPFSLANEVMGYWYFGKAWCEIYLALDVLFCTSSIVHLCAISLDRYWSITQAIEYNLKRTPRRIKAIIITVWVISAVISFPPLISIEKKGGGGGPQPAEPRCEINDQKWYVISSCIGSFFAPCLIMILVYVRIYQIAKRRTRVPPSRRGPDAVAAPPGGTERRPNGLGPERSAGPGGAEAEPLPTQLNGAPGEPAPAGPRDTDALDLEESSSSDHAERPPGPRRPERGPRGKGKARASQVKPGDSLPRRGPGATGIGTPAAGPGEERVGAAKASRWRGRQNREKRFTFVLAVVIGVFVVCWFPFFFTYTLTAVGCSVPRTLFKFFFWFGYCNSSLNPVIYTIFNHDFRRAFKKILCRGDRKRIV
Outline: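 Sf9 membranes, 1 nM [3H]MK-912, 60 min, 25 °C, Tris-HCl pH 7.4/MgCl2/EDTA buffer. NSB: 10 μM WB-4101. Filtration, counting; % inhibition of specific binding.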

[3] = target: T3, rat adrenergic α1B receptor (Rattus norvegicus, UniProt P15823); test: Radioligand binding, adrenergic α1B ([3H]Prazosin); conditions: for Percentage inhibition of ligand binding, Adrenergic α1B / Percentage inhibition of ligand binding, Adrenergic α1B (0.1 μM): 0.1 µM
T3 construct: rat adrenergic α1B receptor obtained from Wistar Rat liver; from tissue; host or cells: Wistar rat liver
T3 sequence (P15823 1-515): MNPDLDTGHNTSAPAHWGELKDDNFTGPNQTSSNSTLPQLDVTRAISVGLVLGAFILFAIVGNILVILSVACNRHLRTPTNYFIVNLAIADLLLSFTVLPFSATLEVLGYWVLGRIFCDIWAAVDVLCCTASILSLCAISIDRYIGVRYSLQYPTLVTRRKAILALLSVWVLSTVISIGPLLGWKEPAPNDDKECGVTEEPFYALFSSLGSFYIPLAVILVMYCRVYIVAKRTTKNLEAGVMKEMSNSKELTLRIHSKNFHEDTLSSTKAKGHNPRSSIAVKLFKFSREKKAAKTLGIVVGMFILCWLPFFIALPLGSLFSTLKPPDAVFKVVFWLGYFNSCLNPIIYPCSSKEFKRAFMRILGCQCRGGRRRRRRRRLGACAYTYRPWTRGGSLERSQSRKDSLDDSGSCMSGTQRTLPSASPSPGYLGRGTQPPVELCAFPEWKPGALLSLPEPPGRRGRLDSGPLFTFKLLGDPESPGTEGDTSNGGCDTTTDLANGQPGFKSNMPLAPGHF
Outline: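 Specific binding, taken as total minus that remaining with 10 μM phentolamine, is measured after filtration and counting. Rat liver receptor preparation and 0.25 nM [3H]prazosin are incubated with compound in 50 mM Tris-HCl (pH 7.4, 0.5 mM EDTA) at 25° C for 60 min. Activity is reported as percent inhibition.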

[4] = compound at 0.03 μM, [3H]Rauwolscine, repeat assays, each datapoint shown
[5] = compound at 0.1 μM, [3H]MK-912, repeat assays, each datapoint shown, read-out: Percentage inhibition of ligand binding, Adrenergic α2A
[6] = compound at 0.1 μM, [3H]Prazosin, repeat assays, each datapoint shown, read-out: Percentage inhibition of ligand binding, Adrenergic α1B
[7] = compound at 0.03 μM, [3H]Rauwolscine, repeat datapoints each shown
[8] = read-out: Percentage inhibition of ligand binding, Adrenergic α2B (0.03 μM), compound at 0.03 μM, [3H]Rauwolscine, repeat datapoints each shown
[9] = read-out: Percentage inhibition of ligand binding, Adrenergic α2A (0.1 μM), compound at 0.1 μM, [3H]MK-912, repeat datapoints each shown
[10] = read-out: Percentage inhibition of ligand binding, Adrenergic α1B (0.1 μM), compound at 0.1 μM, [3H]Prazosin, repeat datapoints each shown
[11] = compound at 0.1 μM, [3H]MK-912, repeat datapoints each shown
[12] = compound at 0.1 μM, [3H]Prazosin, repeat datapoints each shown
[13] = compound at 0.1 μM, [3H]MK-912, repeat assays, each datapoint shown
[14] = compound at 0.1 μM, [3H]Prazosin, repeat assays, each datapoint shown
[15] = compound at 0.03 μM, [3H]Rauwolscine, repeat assays, each datapoint shown, read-out: Percentage inhibition of ligand binding, Adrenergic α2B
[16] = 0.03 μM compound, read-out: Percentage inhibition of ligand binding, Adrenergic α2B
[17] = 0.1 μM compound, read-out: Percentage inhibition of ligand binding, Adrenergic α2A
[18] = 0.1 μM compound, read-out: Percentage inhibition of ligand binding, Adrenergic α1B

Compound: Cc1ccc2c(c1)c1c(n2CC(c2ccncc2)N(C)C)CCN(C)C1 (single isomer, unassigned) [150a]
Percentage inhibition of ligand binding, Adrenergic α2B (0.03 μM) [1, 7]: 96%
pKi [1]: 8.80
inhibition at 0.03 µM [1, 8]: 88%
inhibition at 0.1 µM ([1]; read-out: Percentage inhibition of ligand binding, Adrenergic α2B (0.1 μM), compound at 0.1 μM, [3H]Rauwolscine, repeat datapoints each shown): 100%
inhibition at 0.1 µM [2, 9]: 16%
inhibition at 0.1 µM [3, 10]: 16%

Compound: Cc1ccc2c(c1)c1c(n2CC(CCN(C)C)c2ccncc2)CCN(C)C1 (centres unmarked) [II-232, [4-(2,8-dimethyl-1,2,3,4-tetrahydro-pyrido[4,3-b]indol-5-yl)-3-pyridin-4-yl-butyl]-dimethyl-amine]
inhibition at 0.03 µM [1, 8]: 28%
inhibition at 0.1 µM [2, 9]: 3%
inhibition at 0.1 µM [3, 10]: 3%

Compound: CN1CCc2c(c3cc(Cl)ccc3n2CC(O)(c2ccc(F)cc2)C2CC2)C1 (centres unmarked) [compound 223]
inhibition at 0.03 µM [1, 8]: 47%
inhibition at 0.1 µM [2, 9]: 69%
inhibition at 0.1 µM [3, 10]: 21%

Compound: Cc1ccc2c(c1)c1c(n2CC(O)c2ccncc2Cl)CCN(C)C1 (single isomer, unassigned) [135a]
Percentage inhibition of ligand binding, Adrenergic α2B (0.03 μM) [1, 7]: 42%
Percentage inhibition of ligand binding, Adrenergic α2A (0.1 μM) [2, 11]: 4%
Percentage inhibition of ligand binding, Adrenergic α1B (0.1 μM) [3, 12]: 60%

Compound: CC(O)(Cn1c2c(c3cc(Cl)ccc31)CNCC2)c1ccncn1 (single isomer, unassigned) [42b, 1-(8-chloro-1,2,3,4-tetrahydro-pyrido[4,3-b]indol-5-yl)-2-pyrimidin-4-yl-propan-2-ol]
Percentage inhibition of ligand binding, Adrenergic α2B [1, 4]: 34%
Percentage inhibition of ligand binding, Adrenergic α2A [2, 13]: 12%
Percentage inhibition of ligand binding, Adrenergic α1B [3, 14]: 19%

Compound: Cc1ccc2c(c1)c1c(n2CC(CC(O)C(C)(C)C)c2ccncc2)CCN(C)C1 (single isomer, unassigned) [II-227d, 6-(2,8-dimethyl-1,2,3,4-tetrahydro-pyrido[4,3-b]indol-5-yl)-2,2-dimethyl-5-pyridin-4-yl-hexan-3-ol]
Percentage inhibition of ligand binding, Adrenergic α2B (0.03 μM) [1, 7]: 26%
Percentage inhibition of ligand binding, Adrenergic α2A (0.1 μM) [2, 11]: 6%
Percentage inhibition of ligand binding, Adrenergic α1B (0.1 μM) [3, 12]: 12%

Compound: Cc1cnc2c(c1)c1c(n2CCc2ccc(C)nc2)CCN2CCCCC12 (single isomer, unassigned) [IV-8b]
Percentage inhibition of ligand binding, Adrenergic α2B (0.03 μM) [1, 7]: 3%
Percentage inhibition of ligand binding, Adrenergic α2A (0.1 μM) [2, 11]: 22%
Percentage inhibition of ligand binding, Adrenergic α1B (0.1 μM) [3, 12]: 5%

Compound: Cc1ccc2c(c1)c1c(n2CC(O)c2ccnc3ccccc23)CCN(C)C1 (centres unmarked) [II-90, 2-(2,8-dimethyl-3,4-dihydro-1H-pyrido[4,3-b]indol-5(2H)-yl)-1-(quinolin-4-yl)ethanol]
inhibition at 0.03 µM [1, 16]: 55%
inhibition at 0.1 µM [2, 17]: 19%
inhibition at 0.1 µM [3, 18]: 62%

Compound: Cc1ccc2c(c1)c1c(n2CC(O)c2cccnc2)CCN(CCO)C1 (single isomer, unassigned) [21b]
Percentage inhibition of ligand binding, Adrenergic α2B [1, 4]: 1%
Percentage inhibition of ligand binding, Adrenergic α2A [2, 13]: −3%
Percentage inhibition of ligand binding, Adrenergic α1B [3, 14]: −2%

Compound: Cc1cnc2c(c1)c1c(n2CC(O)c2ccncc2)CCN2CCCC12 (single isomer, unassigned) [IV-209b, 2-(9-Methyl-1,2,3,4,5,10c-hexahydro-3a,6,7-triaza-cyclopenta[c]fluoren-6-yl)-1-pyridin-4-yl-ethanol]
Percentage inhibition of ligand binding, Adrenergic α2B (0.03 μM) [1, 7]: 13%
Percentage inhibition of ligand binding, Adrenergic α2A (0.1 μM) [2, 11]: 10%
Percentage inhibition of ligand binding, Adrenergic α1B (0.1 μM) [3, 12]: 11%

Compound: COc1ccc(C(O)Cn2c3c(c4cc(C)ccc42)CCN(C)C3)cc1 (single isomer, unassigned) [20a, 2-(2,6-dimethyl-1,2,3,4-tetrahydro-β-carbolin-9-yl)-1-(4-methoxy-phenyl)-ethanol]
inhibition at 0.03 µM [1, 15]: 28%
inhibition at 0.1 µM [2, 5]: 29%
Percentage inhibition of ligand binding, Adrenergic α1B [3, 14]: 67%

More lines, now with the values ahead:

Percentage inhibition of ligand binding, Adrenergic α2B [1, 4]: 37%
inhibition at 0.1 µM [2, 5]: 10%
inhibition at 0.1 µM [3, 6]: 12%
Compound: CN1CCc2c(c3ccc(Cl)cc3n2CC(O)c2ccncc2)C1 (single isomer, unassigned) [53a, 2-(7-chloro-2-methyl-3,4-dihydro-1H-pyrido[4,3-b]indol-5(2H)-yl)-1-(pyridin-4-yl)ethanol]

Percentage inhibition of ligand binding, Adrenergic α2B ([1]; 0.03 μM compound): 53%
Percentage inhibition of ligand binding, Adrenergic α2A ([2]; 0.1 μM compound): 16%
Percentage inhibition of ligand binding, Adrenergic α1B ([3]; 0.1 μM compound): 32%
Compound: Cc1ccc2c(c1)c1c(n2C(C)C(O)c2ccccc2)CCN(C)C1 (single isomer, unassigned) [II-95a, 2-(2,8-dimethyl-1,2,3,4-tetrahydro-pyrido[4,3-b]indol-5-yl)1-phenyl-propan-1-ol]

inhibition at 0.03 µM [1, 8]: 4%
inhibition at 0.1 µM [2, 9]: 4%
inhibition at 0.1 µM [3, 10]: -4%
Compound: CN1CCc2c(c3ncccc3n2CC(C)(O)c2cccnc2)C1 (centres unmarked) [II-126]

Percentage inhibition of ligand binding, Adrenergic α2B (0.03 μM) [1, 7]: 52%
Percentage inhibition of ligand binding, Adrenergic α2A (0.1 μM) [2, 11]: 3%
Percentage inhibition of ligand binding, Adrenergic α1B (0.1 μM) [3, 12]: 18%
Compound: Cc1ccc2c(c1)c1c(n2CC(O)c2ccc(C#N)nc2)CCN(C)C1 (single isomer, unassigned) [140b, 5-[2-(2,8-dimethyl-1,2,3,4-tetrahydro-pyrido[4,3-b]indol-5-yl)-1-hydroxy-ethyl]-pyridine-2-carbonitrile]

inhibition at 0.03 µM [1, 8]: 43%
inhibition at 0.1 µM [2, 9]: -1%
inhibition at 0.1 µM [3, 10]: 8%
Compound: Cc1cnc2c(c1)c1c(n2CC(N)c2ccncc2)CCNC1 (centres unmarked) [compound 158]

inhibition at 0.03 µM [1, 15]: 103%
pKi [1]: 9.19
pKi [2]: 6.95
Percentage inhibition of ligand binding, Adrenergic α2A [2, 13]: 24%
inhibition at 0.1 µM [2, 5]: 21%
inhibition at 0.03 µM ([3]; compound at 0.03 μM, [3H]Prazosin, repeat assays, each datapoint shown, read-out: Percentage inhibition of ligand binding, Adrenergic α1B): 73%
Percentage inhibition of ligand binding, Adrenergic α1B [3, 14]: 93%
inhibition at 0.1 µM [3, 6]: 89%
Compound: CN1CCc2c(n(CC(O)c3ccncc3)c3ccc(Cl)cc23)CC1 (single isomer, unassigned) [15b, 2-(9-chloro-3-methyl-2,3,4,5-tetrahydroazepino[4,5-b]indol-6(1H)-yl)-1-(pyridin-4-yl)ethanol]

inhibition at 0.03 µM [1, 16]: 49%
inhibition at 0.1 µM [2, 17]: 10%
inhibition at 0.1 µM [3, 18]: 2%
Compound: CN1CCc2c(c3cc(CO)ccc3n2CC(C)(O)c2cccnc2)C1 (centres unmarked) [II-102]
